Source: patent US20060089378A1 (priority 2004, published 2006)
Where two headings read alike, the source gives them in different places.

Legend:
Cannabinoid CB1 Receptor = target: T1, Cannabinoid CB1 Receptor (Homo sapiens, UniProt P21554); experiment: Binding assay for CB1 agonists or inverse agonists (radioligand competition, membranes of transfected SK-N-MC cells); conditions: for inhibition at 0.2 µM: read-out: Cannabinoid CB1 Receptor Binding percent inhibition
T1 construct: expressed in transfected cells
T1 sequence (P21554 whole entry): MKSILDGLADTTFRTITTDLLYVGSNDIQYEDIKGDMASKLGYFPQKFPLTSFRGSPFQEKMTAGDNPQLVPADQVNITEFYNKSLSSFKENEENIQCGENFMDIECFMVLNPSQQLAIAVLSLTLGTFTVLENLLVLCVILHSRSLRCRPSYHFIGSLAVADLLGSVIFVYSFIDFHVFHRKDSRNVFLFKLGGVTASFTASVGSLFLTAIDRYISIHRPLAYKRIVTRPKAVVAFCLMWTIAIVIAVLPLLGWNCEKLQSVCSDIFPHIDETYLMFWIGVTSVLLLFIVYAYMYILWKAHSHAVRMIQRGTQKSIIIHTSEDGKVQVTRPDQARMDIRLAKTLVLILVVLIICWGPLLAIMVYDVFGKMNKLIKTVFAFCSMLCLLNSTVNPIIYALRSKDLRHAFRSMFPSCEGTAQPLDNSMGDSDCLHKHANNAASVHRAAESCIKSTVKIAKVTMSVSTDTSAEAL

CB2 receptor (human) = target: T2, CB2 receptor (human) (Homo sapiens, UniProt P34972); experiment: Functional cell-based assay, CB2 receptor mediated change in CRE β-gal expression (adenylate cyclase activity) in SK-N-MC cells
T2 construct: expressed in transfected cells
T2 sequence (P34972 whole entry): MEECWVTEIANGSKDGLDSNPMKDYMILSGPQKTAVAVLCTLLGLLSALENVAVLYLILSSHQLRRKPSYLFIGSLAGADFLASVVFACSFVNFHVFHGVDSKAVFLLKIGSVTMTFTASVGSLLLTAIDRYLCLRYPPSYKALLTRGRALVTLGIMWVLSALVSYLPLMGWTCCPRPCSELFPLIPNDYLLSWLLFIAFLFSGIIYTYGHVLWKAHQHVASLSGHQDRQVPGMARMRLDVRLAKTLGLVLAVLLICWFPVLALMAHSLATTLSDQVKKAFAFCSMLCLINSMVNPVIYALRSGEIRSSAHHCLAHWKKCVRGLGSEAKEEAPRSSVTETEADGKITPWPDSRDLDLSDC

CB1 receptor (human) = CB1 receptor (human) (Homo sapiens, UniProt P21554); experiment: cell-based; conditions: for CB1 Receptor Functional Activity (change in functional activity, CRE β-gal): one compound concentration, β-galactosidase activity relative to vehicle treated cells
Sequence of CB1 receptor (human) (P21554 whole entry): as the sequence (P21554 whole entry) above

Cannabinoid CB2 Receptor = target: T3, Cannabinoid CB2 Receptor (Homo sapiens, UniProt P34972); experiment: Binding assay for CB2 agonists or inverse agonists (radioligand competition, membranes of transfected SK-N-MC cells); conditions: for inhibition at 0.2 µM: read-out: Cannabinoid CB2 Receptor Binding percent inhibition
T3 construct: expressed in transfected cells
T3 sequence (P34972 whole entry): as the sequence (P34972 whole entry) above

[1] = human CB2, SK-N-MC cell membranes, calculated by linear regression from percent inhibition at various concentrations, read-out: Cannabinoid CB2 Receptor Binding IC50
[2] = human CB1, SK-N-MC cell membranes, calculated by linear regression from percent inhibition at various concentrations, read-out: Cannabinoid CB1 Receptor Binding IC50

For COC(=O)N1CCc2c(c(C(=O)NC3C4(C)CCC(C4)C3(C)C)nn2Cc2ccccc2)C1 (centres unmarked) [Cpd 106, 1-benzyl-3-(1,3,3-trimethyl-bicyclo[2.2.1]hept-2-ylcarbamoyl)-1,4,6,7-tetrahydro-pyrazolo[4,3-c]pyridine-5-carboxylic acid methyl ester], the IC50 (Cannabinoid CB1 Receptor) was 200 nM, the EC50 (CB2 receptor (human)) was 0.8 nM and the EC50 (CB1 receptor (human)) was 8900 nM. The IC50 (Cannabinoid CB2 Receptor) was 2 nM.
With CCOC(=O)N1CCc2c(c(C(=O)NC3C4(C)CCC(C4)C3(C)C)nn2Cc2ccccc2)C1 (centres unmarked) [Cpd 107, 1-benzyl-3-(1,3,3-trimethyl-bicyclo[2.2.1]hept-2-ylcarbamoyl)-1,4,6,7-tetrahydro-pyrazolo[4,3-c]pyridine-5-carboxylic acid ethyl ester] the IC50 (Cannabinoid CB1 Receptor) was 100 nM, the EC50 (CB2 receptor (human)) was 6 nM and the “CB1 Receptor Functional Activity (change in functional activity, CRE β-gal)” value (CB1 receptor (human)) was −6%. It also gave an IC50 (Cannabinoid CB2 Receptor) of 3 nM.
For CCNC(=O)N1CCc2c(c(C(=O)NC3C4(C)CCC(C4)C3(C)C)nn2-c2ccccc2)C1 (centres unmarked) [Cpd 114, 1-phenyl-1,4,6,7-tetrahydro-pyrazolo[4,3-c]pyridine-3,5-dicarboxylic acid 5-ethylamide 3-[(1,3,3-trimethyl-bicyclo[2.2.1]hept-2-yl)-amide]], the inhibition at 0.2 µM (Cannabinoid CB1 Receptor) was 51%, the “CB1 Receptor Functional Activity (change in functional activity, CRE β-gal)” value (CB1 receptor (human)) was 51% and the inhibition at 0.2 µM (Cannabinoid CB2 Receptor) was 34%.
With COC(=O)N1CCc2c(c(C(=O)NC3C4(C)CCC(C4)C3(C)C)nn2-c2ccccc2)C1 (centres unmarked) [Cpd 115, 1-phenyl-3-(1,3,3-trimethyl-bicyclo[2.2.1]hept-2-ylcarbamoyl)-1,4,6,7-tetrahydro-pyrazolo[4,3-c]pyridine-5-carboxylic acid methyl ester] the IC50 (Cannabinoid CB1 Receptor) was 2700 nM, the “CB1 Receptor Functional Activity (change in functional activity, CRE β-gal)” value (CB1 receptor (human)) was 81% and the IC50 (Cannabinoid CB2 Receptor) was 90 nM.
CCCCn1nc(C(=O)NC2C3(C)CCC(C3)C2(C)C)c2c1CCN(C(=O)OC)C2 (centres unmarked) [Cpd 116, 1-butyl-3-(1,3,3-trimethyl-bicyclo[2.2.1]hept-2-ylcarbamoyl)-1,4,6,7-tetrahydro-pyrazolo[4,3-c]pyridine-5-carboxylic acid methyl ester] gave an IC50 (Cannabinoid CB1 Receptor) of 100 nM, an EC50 (CB1 receptor (human)) of 2900 nM and an inhibition at 0.2 µM (Cannabinoid CB2 Receptor) of 53%.
For CC(C)(C)OC(=O)N1CCc2c(c(C(=O)NC3C4(C)CCC(C4)C3(C)C)nn2C2CCCCC2)C1 (centres unmarked) [Cpd 117, 1-cyclohexyl-3-(1,3,3-trimethyl-bicyclo[2.2.1]hept-2-ylcarbamoyl)-1,4,6,7-tetrahydro-pyrazolo[4,3-c]pyridine-5-carboxylic acid tert-butyl ester], the IC50 (Cannabinoid CB1 Receptor) was 11700 nM, the EC50 (CB2 receptor (human); SK-N-MC cells expressing CRE β-gal and human CB2, forskolin, β-galactosidase activity, varying compound concentrations, read-out: CB2 Receptor Functional Inverse Agonist EC50) was 90 nM and the “CB1 Receptor Functional Activity (change in functional activity, CRE β-gal)” value (CB1 receptor (human)) was −10%. The IC50 (Cannabinoid CB2 Receptor) was 10 nM.
In the case of CC12CCC(C1)C(C)(C)C2NC(=O)c1nn(C2CCCCC2)c2c1CNCC2 (centres unmarked) [Cpd 118, 1-cyclohexyl-4,5,6,7-tetrahydro-1H-pyrazolo[4,3-c]pyridine-3-carboxylic acid (1,3,3-trimethyl-bicyclo[2.2.1]hept-2-yl)-amide], the IC50 (Cannabinoid CB1 Receptor) is reported as 800 nM, the “CB1 Receptor Functional Activity (change in functional activity, CRE β-gal)” value (CB1 receptor (human)) is reported as 4% and the IC50 (Cannabinoid CB2 Receptor; [1]) is reported as 1800 nM.
For COC(=O)N1CCc2c(c(C(=O)NC3C4(C)CCC(C4)C3(C)C)nn2C2CCCCC2)C1 (centres unmarked) [Cpd 119, 1-cyclohexyl-3-(1,3,3-trimethyl-bicyclo[2.2.1]hept-2-ylcarbamoyl)-1,4,6,7-tetrahydro-pyrazolo[4,3-c]pyridine-5-carboxylic acid methyl ester], the IC50 (Cannabinoid CB1 Receptor) was 200 nM, the EC50 (CB2 receptor (human)) was 20 nM and the EC50 (CB1 receptor (human)) was 200 nM. It also gave an IC50 (Cannabinoid CB2 Receptor) of 90 nM.
CCOC(=O)N1CCc2c(c(C(=O)NC3C4(C)CCC(C4)C3(C)C)nn2C2CCCCC2)C1 (centres unmarked) [Cpd 120, 1-cyclohexyl-3-(1,3,3-trimethyl-bicyclo[2.2.1]hept-2-ylcarbamoyl)-1,4,6,7-tetrahydro-pyrazolo[4,3-c]pyridine-5-carboxylic acid ethyl ester] showed an IC50 (Cannabinoid CB1 Receptor) of 500 nM, an EC50 (CB2 receptor (human)) of 50 nM and an EC50 (CB1 receptor (human)) of 20 nM. It also gave an IC50 (Cannabinoid CB2 Receptor) of 20 nM.
Work on CCC(=O)N1CCc2c(c(C(=O)NC3C4(C)CCC(C4)C3(C)C)nn2C2CCCCC2)C1 (centres unmarked) [Cpd 122, 1-cyclohexyl-5-propionyl-4,5,6,7-tetrahydro-1H-pyrazolo[4,3-c]pyridine-3-carboxylic acid (1,3,3-trimethyl-bicyclo[2.2.1]hept-2-yl)-amide] yielded an IC50 (Cannabinoid CB1 Receptor) of 600 nM, an EC50 (CB1 receptor (human)) of 900 nM and an IC50 (Cannabinoid CB2 Receptor) of 10 nM.
For CC(=O)N1CCc2c(c(C(=O)NC3C4(C)CCC(C4)C3(C)C)nn2C2CCCCC2)C1 (centres unmarked) [Cpd 123, 5-acetyl-1-cyclohexyl-4,5,6,7-tetrahydro-1H-pyrazolo[4,3-c]pyridine-3-carboxylic acid (1,3,3-trimethyl-bicyclo[2.2.1]hept-2-yl)-amide], the IC50 (Cannabinoid CB1 Receptor) was 200 nM, the EC50 (CB2 receptor (human)) was 14 nM and the IC50 (Cannabinoid CB2 Receptor) was 40 nM.
Cc1ccc(S(=O)(=O)N2CCc3c(c(C(=O)NC4C5(C)CCC(C5)C4(C)C)nn3C3CCCCC3)C2)cc1 (centres unmarked) [Cpd 124, 1-cyclohexyl-5-(toluene-4-sulfonyl)-4,5,6,7-tetrahydro-1H-pyrazolo[4,3-c]pyridine-3-carboxylic acid (1,3,3-trimethyl-bicyclo[2.2.1]hept-2-yl)-amide] showed an IC50 (Cannabinoid CB1 Receptor) of 1500 nM, an EC50 (CB2 receptor (human)) of 30 nM and an IC50 (Cannabinoid CB2 Receptor) of 20 nM.
For Cc1ccc(S(=O)(=O)N2CCc3c(c(C(=O)NC4C5(C)CCC(C5)C4(C)C)nn3Cc3ccccc3)C2)cc1 (centres unmarked) [Cpd 125, 1-benzyl-5-(toluene-4-sulfonyl)-4,5,6,7-tetrahydro-1H-pyrazolo[4,3-c]pyridine-3-carboxylic acid (1,3,3-trimethyl-bicyclo[2.2.1]hept-2-yl)-amide], the IC50 (Cannabinoid CB1 Receptor; [2]) was 200 nM, the “CB1 Receptor Functional Activity (change in functional activity, CRE β-gal)” value (CB1 receptor (human)) was 27% and the IC50 (Cannabinoid CB2 Receptor) was 30 nM.
With CN(C)S(=O)(=O)N1CCc2c(c(C(=O)NC3C4(C)CCC(C4)C3(C)C)nn2C2CCCCC2)C1 (centres unmarked) [Cpd 127, 1-cyclohexyl-5-dimethylsulfamoyl-4,5,6,7-tetrahydro-1H-pyrazolo[4,3-c]pyridine-3-carboxylic acid (1,3,3-trimethyl-bicyclo[2.2.1]hept-2-yl)-amide] the IC50 (Cannabinoid CB1 Receptor) was 2600 nM, the “CB1 Receptor Functional Activity (change in functional activity, CRE β-gal)” value (CB1 receptor (human)) was 28% and the IC50 (Cannabinoid CB2 Receptor) was 900 nM.
COC(=O)CN1CCc2c(c(C(=O)NC3C4(C)CCC(C4)C3(C)C)nn2C2CCCCC2)C1 (centres unmarked) [Cpd 128, [1-cyclohexyl-3-(1,3,3-trimethyl-bicyclo[2.2.1]hept-2-ylcarbamoyl)-1,4,6,7-tetrahydro-pyrazolo[4,3-c]pyridin-5-yl]-acetic acid methyl ester] was tested, and the IC50 (Cannabinoid CB1 Receptor; [2]) was 700 nM, the “CB1 Receptor Functional Activity (change in functional activity, CRE β-gal)” value (CB1 receptor (human)) was −7% and the IC50 (Cannabinoid CB2 Receptor; [1]) was 400 nM.
COC(=O)N1CCc2c(c(C(=O)NC3C4CC5CC(C4)CC3C5)nn2C2CCCCC2)C1 (centres unmarked) [Cpd 131, 3-(adamantan-2-ylcarbamoyl)-1-cyclohexyl-1,4,6,7-tetrahydro-pyrazolo[4,3-c]pyridine-5-carboxylic acid methyl ester] was tested, and the IC50 (Cannabinoid CB1 Receptor; [2]) was 2700 nM, the “CB1 Receptor Functional Activity (change in functional activity, CRE β-gal)” value (CB1 receptor (human)) was −49% and the IC50 (Cannabinoid CB2 Receptor; [1]) was 200 nM.
In the case of CN(C)C(=O)N1CCc2c(c(C(=O)NC3C4CC5CC(C4)CC3C5)nn2C2CCCCC2)C1 (centres unmarked) [Cpd 132, 1-cyclohexyl-1,4,6,7-tetrahydro-pyrazolo[4,3-c]pyridine-3,5-dicarboxylic acid 3-adamantan-2-ylamide 5-dimethylamide], the IC50 (Cannabinoid CB1 Receptor; [2]) is reported as 5500 nM, the “CB1 Receptor Functional Activity (change in functional activity, CRE β-gal)” value (CB1 receptor (human)) is reported as −42% and the IC50 (Cannabinoid CB2 Receptor; [1]) is reported as 200 nM.
CC(=O)N1C/C(=C\c2ccc(F)cc2)c2c(c(C(=O)N(C(C)=O)N3CCCCC3)nn2-c2ccc(Cl)cc2Cl)C1 [Cpd 134, (7E)-5-acetyl-1-(2,4-dichloro-phenyl)-7-(4-fluoro-benzylidene)-4,5,6,7-tetrahydro-1H-pyrazolo[4,3-c]pyridine-3-carboxylic acid acetyl-piperidin-1-yl-amide] gave an inhibition at 0.2 µM (Cannabinoid CB1 Receptor) of 50%, an EC50 (CB1 receptor (human)) of 20 nM and an inhibition at 0.2 µM (Cannabinoid CB2 Receptor) of 26%.
With C[C@@H](NC(=O)c1nn(-c2ccc(Cl)cc2Cl)c2c1CN(C(=O)OC(C)(C)C)C/C2=C\c1ccc(F)cc1)c1ccccn1 [Cpd 138, (7E)-1-(2,4-dichloro-phenyl)-7-(4-fluoro-benzylidene)-3-[(1R)-1-pyridin-2-yl-ethylcarbamoyl]-1,4,6,7-tetrahydro-pyrazolo[4,3-c]pyridine-5-carboxylic acid tert-butyl ester] the IC50 (Cannabinoid CB1 Receptor) was 30 nM, the EC50 (CB1 receptor (human)) was 9 nM and the inhibition at 0.2 µM (Cannabinoid CB2 Receptor) was 21%.
C[C@@H](NC(=O)c1nn(-c2ccc(Cl)cc2Cl)c2c1CNC/C2=C\c1ccc(F)cc1)c1ccccn1 [Cpd 139, (7E)-1-(2,4-dichloro-phenyl)-7-(4-fluoro-benzylidene)-4,5,6,7-tetrahydro-1H-pyrazolo[4,3-c]pyridine-3-carboxylic acid [(1R)-1-pyridin-2-yl-ethyl]-amide] showed an IC50 (Cannabinoid CB1 Receptor) of 40 nM, an EC50 (CB1 receptor (human)) of 30 nM and an inhibition at 0.2 µM (Cannabinoid CB2 Receptor) of 16%.
Work on C[C@@H](NC(=O)c1nn(-c2ccc(Cl)cc2Cl)c2c1CN(S(C)(=O)=O)C/C2=C\c1ccc(F)cc1)c1ccccn1 [Cpd 140, (7E)-1-(2,4-dichloro-phenyl)-7-(4-fluoro-benzylidene)-5-methanesulfonyl-4,5,6,7-tetrahydro-1H-pyrazolo[4,3-c]pyridine-3-carboxylic acid [(1R)-1-pyridin-2-yl-ethyl]-amide] yielded an inhibition at 0.2 µM (Cannabinoid CB1 Receptor) of 96%, an EC50 (CB1 receptor (human)) of 2 nM and an inhibition at 0.2 µM (Cannabinoid CB2 Receptor) of 9%.
With “(7E)-1-(4-chloro-phenyl)-5-methanesulfonyl-7-(4-methoxy-benzylidene)-4,5,6,7-tetrahydro-1H-pyrazolo[4,3-c]pyridine-3-carboxylic acid (1-pyridin-2-yl-ethyl)-amide [Cpd 78]” the IC50 (Cannabinoid CB1 Receptor; [2]) was 7 nM, the EC50 (CB1 receptor (human); SK-N-MC cells expressing CRE β-gal and human CB1, forskolin, β-galactosidase activity, varying compound concentrations, read-out: CB1 Receptor Functional Inverse Agonist EC50) was 3 nM and the “Cannabinoid CB2 Receptor Binding percent inhibition” value (Cannabinoid CB2 Receptor; test concentration of 0.2 μM, compounds without an IC50 binding value) was 17%.
